Measurements from patent US10183944B2 (Asana Biosciences, LLC, priority 2011, dated 2019).
Counter-ions that a name gives are not always drawn. Like-named read-outs stand apart in the source and are kept apart here.

Experiments:
[1] = target: JAK2 (Homo sapiens (Human), UniProt O60674); assay: Inhibition of enzymatic JAK2 kinase activity (TR-FRET); format: biochemical; details: read-out: IC50 JAK
How it was run: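 TR-FRET read-out (Eu antibody donor, Ulight poly Glu-Tyr acceptor, 665/615 nm ratio) after a 60 min RT kinase reaction with ATP, begun following 30 min compound–enzyme preincubation. Stopped by EDTA; inhibition expressed as 100 minus % activity of positive control.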

[2] = tested on: RBL2H3 cells; assay: Degranulation assay: β-hexosaminidase release during immune complex mediated degranulation; format: cell-based, rat; details: Rattus norvegicus, RBL-2H3; for inhibition at 1 µM: read-out: Degranulation % inhibition at 1 μM; for EC50: read-out: Degranulation EC50
Method: The objective of this assay was to examine by Fluorescence method the effect of compounds on β-hexosaminidase release during immune complex mediated degranulation in RBL2H3 cells. Compounds were tested for their ability to inhibit the ability of this immune complex to mediate β-hexosaminidase release, in an enzyme assay with […] as substrate. […] Emission 460 nm). [table] [table] RBL2H3 cells were maintained in MEM complete media containing 10% FBS at 70%-80% confluence in a mammalian cell culture CO2 incubator with 5% CO2 at 37° C. 2×10^5 cells/well were plated in 1 mL of complete media and incubated for 5 hours for cell attachment. Complete media was replaced with 1 mL of serum free MEM media containing 1.2 μg/mL of anti-DNP rat IgE as sensitizing agent and further incubated overnight with 5% CO2 at 37° C. […] Cells were further stimulated with 5 μg/mL of DNP-BSA for 60 minutes. Plates were centrifuged for 5 minutes at 1000 rpm and 25 μL of culture supernatant was transferred from each assay well into a 96 well black coated plate. 25 μL β-NAG substrate was added to this mixture and incubated at room temperature for 30 minutes. The reaction was terminated with 100 μL of stop solution and fluorescence was monitored. (Excitation 355 nm; Emission 460 nm) See, Sanderson, (2010), Cellular Immunology, 262(1): 28-34 and Silverman, (2006) MCB, 26(5):1826-1838, which are incorporated herein by reference. The % release of β-Hexosaminidase for the test compound was calculated using the following formula: RBL2H3 cells were maintained in MEM complete media containing 10% FBS at 70-80% confluence in a mammalian cell culture CO2 incubator with 5% CO2 at 37° C. 5×10^4 cells/well were plated in 200 μL of complete media containing 0.3 μg/mL of anti-DNP rat IgE as sensitizing agent for 24 hours at 37° C. & 5% CO2. The following day, cells were washed twice with PIPES buffer for 10 minutes at 37° C. and replenished with serum free MEM media. Cells were treated with various concentrations of test compounds (in 0.5% DMSO) for 15 minutes at 37° C. and 5% CO2. The cells were further stimulated with 0.1 μg/mL of DNP-BSA for 45 minutes. The plates were spun for 5 minutes at 2000 rpm and 25 μL of culture supernatant was then transferred from each assay well into a 96 well black coated plate. […] β-NAG substrate was added and incubated at RT for 30 minutes. After incubation with substrate, 150 μL of stop solution was added and fluorescence was monitored. (Excitation 355 nm; Emission 460 nm). See, Yamamoto, JPET, 306(3):1174-1181 (2003) and Taylor, MCB, 15(8): 4149-4157 (1995), which are herein incorporated by reference. Release of β-hexosaminidase during the degranulation process by immune complex mediated FcεRI stimulation is through the SYK pathway. The % inhibition of β-hexosaminidase release by Syk inhibitor gives information with regard to its Syk inhibition potency.

[3] = target: Syk (356-635 amino acids) catalytic domain (Homo sapiens (Human), UniProt P43405); assay: Inhibition of enzymatic Syk kinase activity (radiometric); format: biochemical; details: read-out: IC50 Syk
How it was run: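 Radiometric filter-binding format: 32P transfer from γ-32P-ATP onto pG4T, scintillation-counted after acid washes of P81 paper. Syk kinase domain (356-635), 0.035–7.5 ng per reaction, was exposed to compound for 30 minutes at room temperature before a 10-minute, 30° C. reaction with ATP (100 μM stock). Inhibition derived from counts with versus without compound.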

[4] = Assay Protocol A (24 well format)
[5] = Assay Protocol B (96 well format)

JAK2, sequence (O60674 808-1132): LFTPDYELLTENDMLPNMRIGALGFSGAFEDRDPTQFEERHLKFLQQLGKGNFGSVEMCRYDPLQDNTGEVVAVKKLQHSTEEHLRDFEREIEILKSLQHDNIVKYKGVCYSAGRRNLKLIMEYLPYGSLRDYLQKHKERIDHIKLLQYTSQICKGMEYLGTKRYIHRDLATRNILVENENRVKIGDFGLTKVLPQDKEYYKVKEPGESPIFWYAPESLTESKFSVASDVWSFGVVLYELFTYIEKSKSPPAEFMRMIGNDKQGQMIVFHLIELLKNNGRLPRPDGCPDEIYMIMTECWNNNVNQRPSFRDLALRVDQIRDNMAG

| IC50 [1] [nM] | IC50 [3] [nM] | EC50 [2, 4] [nM] | IC50 ([3]; hydrochloride) [nM] | EC50 [2, 5] [nM] | Compound | inhibition at 1 µM [2, 4] [%] | inhibition at 1 µM [2, 5] [%] |
| --- | --- | --- | --- | --- | --- | --- | --- |
| < 50 | < 50 |  |  |  | O=c1[nH]ncc2nc(-c3ccccc3)nc(Nc3ccc(N4CCOCC4)cc3)c12 [Example 1, 4-(4-morpholinophenylamino)-2-phenylpyrimido[5,4-d]pyridazin-5(6H)-one] | 85 |  |
| < 50 | < 10 | 39 |  |  | CCN1CCN(c2ccc(Nc3nc(-c4ccccc4)nc4cn[nH]c(=O)c34)cc2)CC1 [Example 5, 4-(4-(4-ethylpiperazin-1-yl)phenylamino)-2-phenylpyrimido[4,5-d]pyridazin-5(6H)-one] | 100 |  |
| < 50 | < 50 |  |  |  | CCN1CCN(Cc2ccc(Nc3nc(-c4ccccc4)nc4cn[nH]c(=O)c34)cc2)CC1 [Example 6, 4-(4-((4-ethylpiperazin-1-yl)methyl)phenylamino)-2-phenylpyrimido[4,5-d]pyridazin-5(6H)-one] | 50 |  |
| < 10 | < 10 |  |  |  | O=c1[nH]ncc2nc(-c3ccccc3)nc(Nc3ccc(N4CCNCC4)cc3)c12 [Example 8, 2-phenyl-4-(4-(piperazin-1-yl)phenylamino)pyrimido[4,5-d]pyridazin-5(6H)-one] | 98 |  |
| < 100 | < 50 |  |  |  | O=c1[nH]ncc2nc(-c3ccccc3)nc(Nc3ccc(N(CCO)CCO)cc3)c12 [Example 10, 4-(4-(bis(2-hydroxyethyl)amino)phenylamino)-2-phenylpyrimido[4,5-d]pyridazin-5(6H)-one] | 100 |  |
| < 100 |  |  | < 50 |  | NCC(=O)N1CCN(c2ccc(Nc3nc(-c4ccccc4)nc4cn[nH]c(=O)c34)cc2)CC1 [Example 11, 4-(4-(4-(2-aminoacetyl)piperazin-1-yl)phenylamino)-2-phenylpyrimido[4,5-d]pyridazin-5(6H)-one hydrochloride] | 100 |  |
| < 100 | < 10 |  |  |  | O=c1[nH]ncc2nc(-c3ccsc3)nc(Nc3ccc(CN4CCNCC4)cc3)c12 [Example 24, 4-(4-(piperazin-1-ylmethyl)phenylamino)-2-(thiophen-3-yl) pyrimido[4,5-d]pyridazin-5(6H)-one hydrochloride] |  | 83 |
| < 100 | < 50 |  |  |  | O=C(O)C1CC12CCN(c1nc(Nc3ccc(CN4CCNCC4)cc3)c3c(=O)[nH]ncc3n1)CC2 (centres unmarked) [Example 25, 6-(5-oxo-4-(4-(piperazin-1-ylmethyl)phenylamino)-5,6-dihydropyrimido[4,5-d]pyridazin-2-yl)-6-azaspiro[2.5]octane-1-carboxylic acid hydrochloride] | 79 |  |
| < 100 | < 10 |  |  |  | CCN1CCN(c2ccc(Nc3nc(N4CCOCC4)nc4cn[nH]c(=O)c34)cc2)CC1 [Example 26, 4-(4-(4-ethylpiperazin-1-yl)phenylamino)-2-morpholinopyrimido[4,5-d]pyridazin-5(6H)-one] |  | 67 |
| < 50 | < 50 |  |  |  | O=c1[nH]ncc2nc(N3CCCCC3)nc(Nc3ccc(CN4CCNCC4)cc3)c12 [Example 30, 4-(4-(piperazin-1-ylmethyl)phenylamino)-2-(piperidin-1-yl)pyrimido[4,5-d]pyridazin-5(6H)-one hydrochloride] |  | 99 |
| > 100 | < 50 |  |  |  | O=c1[nH]ncc2nc(-c3ccc4c(c3)OCO4)nc(Nc3ccc(CN4CCNCC4)cc3)c12 [Example 33, 2-(benzo[d][1,3]dioxol-5-yl)-4-(4-(piperazin-1-ylmethyl)phenylamino) pyrimido[4,5-d]pyridazin-5(6H)-one hydrochloride] |  | 58 |
| < 50 | < 50 |  |  | 378 | O=C(O)CC1CCN(c2ccc(Nc3nc(-c4ccccc4)nc4cn[nH]c(=O)c34)cc2)CC1 [Example 34, 2-(1-(4-(5-oxo-2-phenyl-5,6-dihydropyrimido[4,5-d]pyridazin-4-ylamino)phenyl)piperidin-4-yl)acetic acid] |  | 80 |
| < 50 | < 50 |  |  |  | O=C(O)C1CCN(Cc2ccc(Nc3nc(-c4ccccc4)nc4cn[nH]c(=O)c34)cc2)CC1 [Example 35, 1-(4-(5-oxo-2-phenyl-5,6-dihydropyrimido[4,5-d]pyridazin-4-ylamino)benzyl)piperidine-4-carboxylic acid] |  | 19 |
| < 50 | < 50 |  |  |  | O=C(O)C1CC12CCN(c1ccc(Nc3nc(-c4ccsc4)nc4cn[nH]c(=O)c34)cc1)CC2 (centres unmarked) [Example 39, 6-(4-(5-oxo-2-(thiophen-3-yl)-5,6-dihydropyrimido[4,5-d]pyridazin-4-ylamino)phenyl)-6-azaspiro[2.5]octane-1-carboxylic acid] |  | 100 |
| < 100 | < 50 |  |  |  | O=C(O)CC1CCN(c2nc(Nc3ccc(CN4CCNCC4)cc3)c3c(=O)[nH]ncc3n2)CC1 [Example 43, 2-(1-(5-oxo-4-((4-(piperazin-1-ylmethyl)phenyl)amino)-5,6-dihydropyrimido[4,5-d]pyridazin-2-yl)piperidin-4-yl)acetic acid hydrochloride] |  | 13 |
|  | < 50 |  |  | 352 | N#CCC1CCN(c2nc(Nc3ccc(N4CCC5(CC4)CC5C(=O)O)cc3)c3c(=O)[nH]ncc3n2)CC1 (centres unmarked) [Example 66, 6-(4-((2-(4-(cyanomethyl)piperidin-1-yl)-5-oxo-5,6-dihydropyrimido[4,5-d]pyridazin-4-yl)amino)phenyl)-6-azaspiro[2.5]octane-1-carboxylic acid] |  | 75 |
|  | < 100 |  |  | 1.2 | O=C(c1ccc(Nc2nc(N3CCCCCC3)nc3cn[nH]c(=O)c23)cc1)N1CCOCC1 [Example 68, 2-(azepan-1-yl)-4-((4-(morpholine-4-carbonyl)phenyl)amino)pyrimido[4,5-d]pyridazin-5(6H)-one] |  | 100 |
|  | < 10 |  |  | 31 | O=C(O)CC1CCN(c2ccc(Nc3nc(N4CCCCCC4)nc4cn[nH]c(=O)c34)cc2)CC1 [Example 69, 2-(1-(4-((2-(azepan-1-yl)-5-oxo-5,6-dihydropyrimido[4,5-d]pyridazin-4-yl)amino)phenyl)piperidin-4-yl)acetic acid] |  | 100 |
|  | < 50 |  |  | 230 | N#CCC1CCN(c2nc(Nc3ccc(OCCC4CCNCC4)cc3)c3c(=O)[nH]ncc3n2)CC1 [Example 169, 2-(1-(5-oxo-4-((4-(2-(piperidin-4-yl)ethoxy)phenyl)amino)-5,6-dihydropyrimido[4,5-d]pyridazin-2-yl)piperidin-4-yl)acetonitrile] |  | 17 |
|  | < 10 |  |  | 29 | CCN1CCN(CCc2ccc(Nc3nc(N4CCCCCC4)nc4cn[nH]c(=O)c34)cc2)CC1 [Example 209, 2-(azepan-1-yl)-4-((4-(2-(4-ethylpiperazin-1-yl)ethyl)phenyl)amino) pyrimido[4,5-d]pyridazin-5(6H)-one] |  | 81 |
